The source of these data is publication PMC9814544 (Communications Chemistry, 2020).

The target of data set [1] is T1, hERG channel (Homo sapiens, UniProt Q12809).
T1 construct: expressed in transfected cells; host or cells: HEK293
The data set is described as follows: hERG patch-clamp in HEK293 cells. Type of data set: cell-based. As to the method: hERG-mediated membrane currents are recorded in HEK (human embryonic kidney) 293 cells stably transfected with hERG cDNA, using the whole-cell configuration of the patch-clamp technique as previously described. The number of experiments for BI-0115 is n = 1.

Data set [2] addresses T2, human LOX-1 receptor (Homo sapiens, UniProt P78380).
T2 construct: the cellular HTS screen was done using full-length LOX-1 and human oxLDL; expressed in transfected cells; host or cells: CHO-K1 T-REx (CHO-Trex-hLOX1 clone), vector pT-Rex-EXP-30-hLOX
The data set is described as follows: LOX-1 cellular oxLDL uptake assay (AF594-oxLDL, CHO-Trex-hLOX1). The data set is classed as cell-based. The text has this:
To identify small molecule inhibitors of LOX-1 mediated oxLDL uptake we developed a cellular high throughput screening (HTS) assay. Small molecule compounds were screened for their ability to block the uptake of AlexaFluor594 (AF594)-labeled human oxLDL into a CHO-K1 cell line with inducible expression of the human LOX-1 receptor. This readout was visualized and images were quantified by fluorescence microscopy (Fig. 1a). As positive controls, cells without induction of LOX-1 as well as a blocking anti-LOX-1 antibody[29] was used (Fig. 1b). More than one million different compounds were screened. Lead-like compounds (molecular weight above 270 Da) were tested at a concentration of 5 µg/ml, whereas a fragment subset (molecular weight below 270 Da) was tested at a tenfold higher concentration to ensure detection of more weakly active but ligand-efficient fragment-like compounds. Employing a hit criterion of lower than 50% of control, a hit rate of 2.8% was observed (Supplementary Fig. 1). These hits were further confirmed by performing two independent assay runs with fresh compound samples, resulting in a confirmation rate of 80% and a confirmed hit rate of 2.2% (Supplementary Fig. 2). To filter out unspecific or false-positive hits, a counter screen was developed and applied for testing the primary hits[30]–[32]. The assay format was identical to the primary assay besides employing a CHO cell line with inducible expression of human HDL scavenger receptor class B type I (SR-BI), an alternative scavenger receptor with low sequence and structural homology to human LOX-1 (Supplementary Fig. 1). Human SR-B1 is a cell surface glycoprotein most highly expressed in liver and steroidogenic tissues and plays a key role in mediating selective HDL cholesterol (HDL-C) uptake in the liver. Its regulation of HDL-C metabolism is believed to be relevant for cardiovascular health and the receptor was therefore chosen as a counter target. Using this single assay, we eliminated compounds that blocked both receptors presumably via an unspecific, non-target related mechanism (Supplementary Fig. 3).
A recombinant CHO-K1 cell line was generated to stably express human LOX-1 under control of a Tetracycline inducible promoter: using Gateway® Cloning (Invitrogen), the hLOX-1 cDNA was cloned into pT-Rex-DEST-30 thus generating pT-Rex-EXP-30-hLOX. The CHO-K1 T-REx host cell line was then transfected with the expression vector pT-Rex-EXP-30-hLOX. Stably transfected cells were selected by Geneticin resistance. Single cell clones expressing human LOX-1 upon induction with Doxycycline were isolated and the best clone selected by qRT-PCR and FACS analysis (CHO-Trex-hLOX1 cell clone). Cells expressing human SR-BI were prepared and used for the assay in a similar fashion (CHO-Trex-hSR-B1 cell line). […]

Data set [3] deals with T3, LOX129.
T3 construct: 6His-tag with thrombin cleavage site (N, cleaved yes); made in house; host or cells: E. coli SHuffle cells (New England BioLabs), pET28a
The data set is described as follows: STD-NMR binding, LOX129. The arrangement: species or system human. To be noted: 5 µM LOX129, 250 µM compound; n = 1. As to the method:
Selected cluster representatives were analyzed by multiple biophysical methods to further validate and characterize the identified compounds.
STD NMR binding experiments[51] were performed in 2.5 mm NMR tubes on a Bruker AVII+ 600 MHz spectrometer equipped with a 5 mm cryo-TCI probe and z-gradients. 5 μM LOX129 was incubated with 250 μM BI-0115 in 25 mM Na-phosphate, 100 mM NaCl pH 7.5 in D2O at 298 K and a total d6-DMSO concentration of 1%. The on- and off-resonance spectra were recorded in an interleaved fashion with 256 transients, respectively. Saturation was achieved by irradiation with a Gaussian pulse train for 3 s at resonance frequencies of 100 Hz and 20 kHz, respectively. Residual protein signals were suppressed by employing a 30 ms spin lock pulse prior to acquisition. Water suppression was achieved by a WATERGATE sequence employing a double gradient echo[53]. The signal intensity in the saturation transfer difference spectrum was normalized by the following equation to yield the %STD value: %STD = 100 * (((I(0)-I(sat))/I(0))), where I(0) is the intensity of one signal in the off-resonance and I(sat) the intensity of one signal in the on-resonance spectrum, respectively. Topspin 3.0 (Bruker Biospin) was used to process and analyze data.

The structures appear in SMILES notation. pIC50: −log10 of the molar value. Several values for one entry are separate records, joined by “and”; a condition that tells them apart may be missing. Equal values may be shown once. Read-outs that look alike come from different tables or passages of the source. A value given as a limit tells only on which side of the number the result lay.

T1 sequence (Q12809 whole entry): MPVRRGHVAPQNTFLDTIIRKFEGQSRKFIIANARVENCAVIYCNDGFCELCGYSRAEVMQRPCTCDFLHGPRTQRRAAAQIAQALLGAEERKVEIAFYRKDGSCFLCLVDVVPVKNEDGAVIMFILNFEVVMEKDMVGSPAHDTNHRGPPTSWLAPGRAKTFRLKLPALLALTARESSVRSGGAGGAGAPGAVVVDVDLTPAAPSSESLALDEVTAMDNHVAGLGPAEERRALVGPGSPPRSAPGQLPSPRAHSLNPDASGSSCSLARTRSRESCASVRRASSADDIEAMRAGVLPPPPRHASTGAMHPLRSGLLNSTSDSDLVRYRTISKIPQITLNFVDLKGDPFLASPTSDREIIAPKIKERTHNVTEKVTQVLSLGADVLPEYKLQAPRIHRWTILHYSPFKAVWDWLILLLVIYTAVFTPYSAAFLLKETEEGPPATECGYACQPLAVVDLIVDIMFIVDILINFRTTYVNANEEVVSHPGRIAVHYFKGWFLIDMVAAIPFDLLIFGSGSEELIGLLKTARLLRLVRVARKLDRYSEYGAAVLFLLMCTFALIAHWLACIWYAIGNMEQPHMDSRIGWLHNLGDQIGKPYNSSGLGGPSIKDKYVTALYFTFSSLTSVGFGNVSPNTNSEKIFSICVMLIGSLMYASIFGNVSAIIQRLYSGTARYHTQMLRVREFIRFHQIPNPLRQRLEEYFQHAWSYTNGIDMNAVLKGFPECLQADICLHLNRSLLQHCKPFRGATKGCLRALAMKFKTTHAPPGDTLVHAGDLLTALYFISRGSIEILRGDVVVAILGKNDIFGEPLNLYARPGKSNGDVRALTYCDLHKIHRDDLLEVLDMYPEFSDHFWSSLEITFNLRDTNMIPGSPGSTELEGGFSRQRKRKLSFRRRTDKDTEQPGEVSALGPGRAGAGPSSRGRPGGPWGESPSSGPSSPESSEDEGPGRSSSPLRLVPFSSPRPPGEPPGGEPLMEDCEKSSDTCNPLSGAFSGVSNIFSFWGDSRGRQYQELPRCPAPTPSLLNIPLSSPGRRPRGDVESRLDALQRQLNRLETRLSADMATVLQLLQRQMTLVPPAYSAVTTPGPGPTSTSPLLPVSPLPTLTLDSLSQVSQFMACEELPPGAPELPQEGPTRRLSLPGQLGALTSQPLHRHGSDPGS

Consider `CCCN1C(=O)c2ccc(Cl)cc2Nc2ncccc21` [BI-0115], for which, in data set [1] (in words), the “inhibition of the hERG channel” value is listed as “no inhibition”. Further, the pIC50 in data set [1] (whole-cell patch-clamp, n = 1) was less than 5.00; in data set [2] (eight independent measurements 1-8, Supplementary Table 1, read-out: IC50 on LOX-1, individual measurements), 5.12 and 5.15 and 5.48 and 5.70 and 5.23 and 5.16 and 5.29 and 5.30; in data set [2] (mean, BI-0115 n = 8, BI-1580 n = 2, inhibition of AF594-oxLDL internalization, read-out: LOX-1 IC50), 5.27; in data set [2] (single curve of Fig. 1c, n = 2 per concentration, R^2 = 0.98, read-out: IC50, representative concentration response curve), 5.14. The “extent of inhibition of oxLDL uptake in the cellular context” value in data set [2] (in words, reply to reviewers) is listed as “full inhibition”. In data set [3], the STD-NMR entry is “binding”.
